The experiment has as its target FMRFamide-like neuropeptides 14 (Ascaris).

SMILES strings stand for the structures.

For orientation: Ki means the equilibrium dissociation constant of an inhibitor or competing ligand from its target. Molecule `Nc1nc2c(ncn2C2OC(COP(=O)(O)OP(=O)(O)OP(=O)(O)O)C(O)C2O)c(=O)[nH]1` (stereo unspecified) [CAS_6830] came in with a Ki of 10.5 nM.

Source of the values: BindingDB's records for doi:10.1016/s0006-291x(02)03054-1 (Pharmacia, 2003).
